Key:
in vivo = conditions: rat, po
[1] = rat, in vivo
[2] = Human plasma protein binding (PPB); conditions: independent of concentration 1–50 μM
[3] = plasma protein binding, mouse; conditions: in vitro at 1-50 µM
[4] = Quantitative whole-body autoradiography, tissue distribution of radioactivity; type: in vivo, male pigmented Lister Hood rat
Description: Quantitative whole-body autoradiography. The distribution of radioactivity in male, pigmented Lister Hood rat tissues was obtained after a single intravenous infusion over 15 minutes of ^14C-AZD0914 at 25 mg/kg (51 μmol/kg, 5 MBq/kg) using quantitative whole-body autoradiography with phosphor-imaging technology. The potential of this compound and/or its metabolites to bind to melanin-containing tissues and/or to potentially bind covalently to tissues was also evaluated. The rats were sacrificed at 5 minutes, 1 hour, 4 hours, 24 hours, 48 hours, 7 days and 21 days after the end of infusion with enflurane (Efrane®, Abbott Laboratories, USA), and frozen in acetone, cooled to -70 °C with solid CO2. The 7- and 21- day animals could not be quantified as no trace of radioactivity was observed. After removal of limbs and tail, the carcass was embedded, with left lateral side uppermost, in a 2.5% (w/v) aqueous solution of caramellosum natricum and frozen for at least 10 minutes. The animal blocks were stored at -20 °C until sectioning. Sagittal whole-body sections (30 μm) were obtained to include organs and tissues of interest. At sectioning each block was mounted in a Leica CM3600 Cryomacrotome (Leica Microsystems GmbH, Germany) maintained at approximately -20 °C. All sections were dried at -20 °C for at least 1 day prior to exposure on phosphor-imaging plates. Together with two sets of calibration standards, the sections were placed on phosphor-imaging plates, which had been pre-covered with a thin plastic film. The imaging plates were exposed for 1 to 3 days at +4 to +12 °C, enclosed in light tight cassettes in a lead shielding box to protect from environmental radiation. Following exposure, the imaging plates were scanned at a pixel size of 50 μm using FLA-7000 (FujiFilm Sverige AB, Sweden). The tissues and organs of interest were quantified using AIDA 3.5 (Raytest, Germany). The quantification limit was defined as twice the background value of the imaging plate and varied between the plates from 0.23 to 0.33 nmol/g. The various tissues and organs were identified either on the autoradiograms or on the corresponding tissue sections.

[5] = 5 minutes after 25 mg/kg iv infusion
[6] = 1 hour after 25 mg/kg iv infusion
[7] = 4 hours after 25 mg/kg iv infusion

With CC(=O)NC[C@H]1CN(c2ccc(N3CCOCC3)c(F)c2)C(=O)O1 [Linezolid] the AUC (in vivo) was 1900 µM·h, the neutrophil count [1] was “showing suppression” and the reticulocytes count ([1]; 250 mg/kg) was “significant suppression”.

For C[C@@H]1CN2c3c(cc4c(N5C(=O)OC[C@@H]5C)noc4c3F)C[14C]3(C(=O)NC(=O)NC3=O)[C@H]2[C@H](C)O1 [^14C-ETX0914], the “PPB (%free)” value [2] was 17.0 % free, the “PPB (%free)” value [3] was 22.1 %free and the “Total radioactivity: Adrenal cortex” value [4, 5] was 84 nmol/g. For the same molecule, the “Total radioactivity: Adrenal medulla” value [4, 5] was 43 nmol/g, the “Total radioactivity: Aortic wall” value [4, 5] was 53 nmol/g and the “Total radioactivity: Bile” value [4, 5] was 1200 nmol/g. The “Total radioactivity: Bone marrow” value [4, 5] was 35 nmol/g, the “Total radioactivity: Brain” value [4, 5] was 0.79 nmol/g and the “Total radioactivity: Choroid & retinal pigment epithelium” value [4, 5] was 16 nmol/g. For the same molecule, the “Total radioactivity: Heart blood” value [4, 5] was 27 nmol/g, the “Total radioactivity: Liver” value [4, 5] was 320 nmol/g and the “Total radioactivity: Lung” value [4, 5] was 52 nmol/g. For the same molecule, the “Total radioactivity: Lymph node” value [4, 5] was 29 nmol/g, the “Total radioactivity: Myocardium” value [4, 5] was 73 nmol/g and the “Total radioactivity: Renal cortex” value [4, 5] was 170 nmol/g. For the same molecule, the “Total radioactivity: Renal medulla (inner)” value (“Total radioactivity … (inner)” below) [4, 5] was 70 nmol/g, the “Total radioactivity: Renal medulla (outer)” value (shortened to “Total radioactivity … (outer)”) [4, 5] was 68 nmol/g and the “Total radioactivity: Skeletal muscle” value [4, 5] was 29 nmol/g. For the same molecule, the “Total radioactivity: Skin, pigmented” value [4, 5] was 15 nmol/g, the “Total radioactivity: Spinal cord” value [4, 5] was 1.0 nmol/g and the “Total radioactivity: Testis” value [4, 5] was 2.4 nmol/g. For the same molecule, the “Total radioactivity: Urine” value [4, 5] was 51 nmol/g, the “Total radioactivity: White fat” value [4, 5] was 6.6 nmol/g and the “Total radioactivity: Adrenal cortex” value [4, 6] was 40 nmol/g. The “Total radioactivity: Adrenal medulla” value [4, 6] was 26 nmol/g, the “Total radioactivity: Aortic wall” value [4, 6] was 58 nmol/g and the “Total radioactivity: Bile” value [4, 6] was 1500 nmol/g. The “Total radioactivity: Bone marrow” value [4, 6] was 20 nmol/g, the “Total radioactivity: Brain” value [4, 6] was 0.72 nmol/g and the “Total radioactivity: Choroid & retinal pigment epithelium” value [4, 6] was 17 nmol/g. For the same molecule, the “Total radioactivity: Heart blood” value [4, 6] was 18 nmol/g, the “Total radioactivity: Liver” value [4, 6] was 190 nmol/g and the “Total radioactivity: Lung” value [4, 6] was 31 nmol/g. The “Total radioactivity: Lymph node” value [4, 6] was 23 nmol/g, the “Total radioactivity: Myocardium” value [4, 6] was 42 nmol/g and the “Total radioactivity: Renal cortex” value [4, 6] was 130 nmol/g. For the same molecule, the “Total radioactivity … (inner)” value [4, 6] was 32 nmol/g, the “Total radioactivity … (outer)” value [4, 6] was 120 nmol/g and the “Total radioactivity: Skeletal muscle” value [4, 6] was 20 nmol/g. The “Total radioactivity: Skin, pigmented” value [4, 6] was 20 nmol/g, the “Total radioactivity: Spinal cord” value [4, 6] was 1.0 nmol/g and the “Total radioactivity: Testis” value [4, 6] was 5.7 nmol/g. For the same molecule, the “Total radioactivity: Urine” value [4, 6] was 400 nmol/g, the “Total radioactivity: White fat” value [4, 6] was 8.9 nmol/g and the “Total radioactivity: Adrenal cortex” value [4, 7] was 8.7 nmol/g. The “Total radioactivity: Adrenal medulla” value [4, 7] was 4.5 nmol/g, the “Total radioactivity: Aortic wall” value [4, 7] was 13 nmol/g and the “Total radioactivity: Bone marrow” value [4, 7] was 4.0 nmol/g. The “Total radioactivity: Choroid & retinal pigment epithelium” value [4, 7] was 8.1 nmol/g, the “Total radioactivity: Heart blood” value [4, 7] was 4.2 nmol/g and the “Total radioactivity: Liver” value [4, 7] was 69 nmol/g. For the same molecule, the “Total radioactivity: Lung” value [4, 7] was 6.9 nmol/g, the “Total radioactivity: Lymph node” value [4, 7] was 4.1 nmol/g and the “Total radioactivity: Myocardium” value [4, 7] was 6.9 nmol/g. The “Total radioactivity: Renal cortex” value [4, 7] was 39 nmol/g, the “Total radioactivity … (inner)” value [4, 7] was 8.0 nmol/g and the “Total radioactivity … (outer)” value [4, 7] was 18 nmol/g. For the same molecule, the “Total radioactivity: Skeletal muscle” value [4, 7] was 4.2 nmol/g, the “Total radioactivity: Skin, pigmented” value [4, 7] was 3.6 nmol/g and the “Total radioactivity: Spinal cord” value [4, 7] was 0.30 nmol/g. For the same molecule, the “Total radioactivity: Testis” value [4, 7] was 2.6 nmol/g, the “Total radioactivity: Urine” value [4, 7] was 100 nmol/g and the “Total radioactivity: Brain” value ([4]; 4 hours after 25 mg/kg iv infusion, BLQ = below limit of quantification (0.24)) was “BLQ^d”. For the same molecule, the “Total radioactivity: Liver” value ([4]; 24 hours after 25 mg/kg iv infusion) was 0.35 nmol/g, the “Total radioactivity: Liver” value ([4]; 48 hours after 25 mg/kg iv infusion, BLQ = below limit of quantification (0.24)) was “BLQ” and the “melanin or covalent binding of parent and/or metabolites to tissue” value ([4]; pigmented rat) was “no melanin or covalent binding”. The CNS penetration ([4]; rat, whole-body autoradiography) was “very low CNS penetration”.

Reference: article PMC4501059, “Responding to the challenge of untreatable gonorrhea: ETX0914, a first-in-class agent with a distinct mechanism-of-action against bacterial Type II topoisomerases” (Scientific Reports, 2015)
